Literature values, collected in US10974081B2, “Treatment and prevention of sleep disorders” (Purdue Pharma L.P., priority 2016, dated 2021).

System: rats
Settings: by suppression of rhythmic firing of SCN neurons; cited from earlier work

In the case of `CNC(=O)Cn1c(=O)n(C2CCN([C@@H]3Cc4cccc5cccc3c45)CC2)c2ccccc21` [Compound W-212393], the “effect on circadian body temperature rhythm” value is given as “induced a phase advance”.
